Reference: patent US6784314B2, “Process for producing amine derivatives” (Takeda Chemical Industries, Ltd., priority 2000, dated 2004)
Where a name gives a salt, the structure may show the parent alone.

Assays:
[1] = stability on storage for a long time under usual conditions; assay type: physicochemical
β-amyloid protein = experiment: action of inhibiting the production and secretion of β-amyloid protein

## CN(C)CC[C@@H]1CCc2cc(OCc3ccc(-c4ccccc4)cc3)ccc2C1 [Compound (V′), (R)-(+)-6-(4-biphenylyl)methoxy-2-[2-(N,N-dimethylamino)ethyl]tetralin hydrochloride monohydrate]
Transfer to the brain
  transfer to the brain: excellent in transfer to the brain
[1]
  stability (denaturation after storage): very excellent in stability
β-amyloid protein
  action of inhibiting the production and secretion of β-amyloid protein: excellent
toxicity
  toxicity: low toxic
